In patent publication US4593090A, “Novel nitrosourea compounds, method for preparing same, and pharmaceutical composition containing same” (Gogo Kimura, priority 1981, dated 1986):

Columns and labels:
Leukemia L1210 = test: Activity against Leukemia L1210, intraperitoneal, increase in life span of mice; assay type: in vivo, female mice (BDF1 family); details: for Survivors after 60 days / Max. ILS % / Therapeutic ratio TR: ip; for Survivors after 60 days: 6-membered group; for Max. ILS %: 60-day observation, versus control; for Therapeutic ratio TR: O.D./ILS30; for ED (maximum ILS) / ED30: Mus musculus, L1210, ip; for ED (maximum ILS): read-out: O.D. (optimum dosage); for ED30: read-out: ILS30
Summary of the method: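 Female BDF1 mice (20 to 23 g; 6 per group) were implanted intraperitoneally with 1×10^5 L1210 cells, then dosed ip or orally once daily for 5 days starting 24 h later. Survival was followed over 60 days, and ILS% was derived from mean survival days versus untreated controls.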

[1] = Acute toxicity (LD50, Behrens-Karber method); assay type: in vivo, ICR mice; details: ip, mortality during 30 days; for LD50 at 720 h: mouse, in vivo
Experimental: Test compounds, dissolved or suspended in 0.5% aqueous CMC, were each intraperitoneally administered to ICR mice in a dose of 0.1 ml per 10 g body weight. LD50 (mg/kg) value of each test compound was calculated from the mortality of mice during 30 days by the Behrens-Karber method.

[2] = ip once a day for 5 successive days, daily dosage giving maximum increase of life span
[3] = ip once a day for 5 successive days, daily dosage increasing average survival days by 30%

SMILES | O.D. (optimum dosage) (Leukemia L1210; [2]) | ILS30 (Leukemia L1210; [3]) | Survivors after 60 days (Leukemia L1210) | Max. ILS % (Leukemia L1210) | Therapeutic ratio TR (Leukemia L1210) | LD50 ([1]; 43200 min) | ED (maximum ILS) (Leukemia L1210; [2]) | ED30 (Leukemia L1210; [3]) | LD50 at 720 h [1]
CC(C)(C)CN(C[C@H]1O[C@H](OCC2CCCO2)[C@H](O)[C@@H](O)[C@@H]1O)C(=O)N(CCCl)N=O (stereo partly drawn) [Compound 194, 3-neopentyl-3-(tetrahydrofurfuryl α-D-glucopyranose-6-yl)-1-(2-chloroethyl)-1-nitrosourea] | 160 mg/kg | 2.56 mg/kg | 6/6 | > 700% | 62.6 | 560 mg/kg | – | – | –
CC(C)CO[C@H]1O[C@H](CN(Cc2ccccc2)C(=O)N(CCCl)N=O)[C@@H](O)[C@H](O)[C@H]1O [Compound 22, 3-benzyl-3-(isobutyl α-D-glucopyranose-6-yl)-1-(2-chloroethyl)-1-nitrosourea] | – | – | 3/6 | > 350% | 38.2 | – | 170 mg/kg | 4.45 mg/kg | 510 mg/kg
COc1ccc(CN(C(=O)N(CCCl)N=O)[C@H]2[C@@H](OCC(C)C)O[C@H](CO)[C@H](O)[C@@H]2O)cc1 [Compound 120, 3-(p-methoxybenzyl)-3-(isobutyl α-D-galactopyranose-2-yl)-1-(2-chloroethyl)-1-nitrosourea] | – | – | 3/6 | > 340% | 25.8 | – | 170 mg/kg | 6.59 mg/kg | 550 mg/kg
CCCCO[C@H]1O[C@H](CN(CCCC)C(=O)N(CCCl)N=O)[C@@H](O)[C@H](O)[C@H]1O [Compound 6, 3-n-butyl-3-(n-butyl α-D-glucopyranose-6-yl)-1-(2-chloroethyl)-1-nitrosourea] | – | – | 6/6 | > 700% | 40.0 | – | 120 mg/kg | 3 mg/kg | 390 mg/kg
COCC(C)N(C(=O)N(CCCl)N=O)C1C(O)C(CO)OC(OC2CCCCC2)C1O [Compound 87, 3-(1-methyl-2-methoxyethyl)-3-(cyclohexyl α-D-glucopyranose-3-yl)-1-(2-chloroethyl)-1-nitrosourea] | – | – | 6/6 | > 700% | 47.2 | – | 200 mg/kg | 4.24 mg/kg | 720 mg/kg
CC(C)CN(C(=O)N(CCCl)N=O)[C@@H]1[C@H](OC2CCCCC2)O[C@H](CO)[C@H]1O [Compound 162, 3-isobutyl-3-(cyclohexyl β-D-arabinofuranose-2-yl)-1-(2-chloroethyl)-1-nitrosourea] | – | – | 3/6 | > 350% | 28.4 | – | 160 mg/kg | 5.63 mg/kg | 500 mg/kg
Cc1ccc(CN(C[C@H]2O[C@H](OCC(C)C)[C@H](O)[C@@H](O)[C@H]2O)C(=O)N(CCCl)N=O)cc1 [Compound 111, 3-(p-methylbenzyl)-3-(isobutyl α-D-galactopyranose-6-yl)-1-(2-chloroethyl)-1-nitrosourea] | – | – | 3/6 | > 345% | 28.4 | – | 200 mg/kg | 7.04 mg/kg | 600 mg/kg
CCCCO[C@H]1O[C@H](CO)[C@@H](O)[C@H](O)[C@H]1N(CCOCCO)C(=O)N(CCCl)N=O [Compound 58, 3-[2-(2-hydroxyethoxy)ethyl]-3-(n-butyl α-D-glucopyranose-2-yl)-1-(2-chloroethyl)-1-nitrosourea] | – | – | 4/6 | > 422% | 45.2 | – | 190 mg/kg | 4.2 mg/kg | 585 mg/kg
COCCN(C(=O)N(CCCl)N=O)[C@H]1[C@H](OC2CCCCC2)OC[C@H](O)[C@@H]1O [Compound 155, 3-(2-methoxyethyl)-3-(cyclohexyl α-L-arabinopyranose-2-yl)-1-(2-chloroethyl)-1-nitrosourea] | – | – | 6/6 | > 700% | 60.6 | – | 160 mg/kg | 2.64 mg/kg | 520 mg/kg
CO[C@H]1O[C@H](CN(CCO)C(=O)N(CCCl)N=O)[C@@H](O)[C@H](O)[C@H]1O [Compound 6MCαGHE, 3-(2-hydroxyethyl)-3-(methyl α-D-glucopyranose-6-yl)-1-(2-chloroethyl)-1-nitrosourea, reference compound] | – | – | 4/6 | > 440% | 21.4 | – | 30 mg/kg | 1.4 mg/kg | 90 mg/kg
CC(C)CN(C[C@H]1O[C@H](OCc2ccccc2)[C@@H](O)[C@H](O)[C@@H]1O)C(=O)N(CCCl)N=O [Compound 139, 3-isobutyl-3-(benzyl α-D-altropyranose-6-yl)-1-(2-chloroethyl)-1-nitrosourea] | – | – | 3/6 | > 340% | 28.4 | – | 130 mg/kg | 4.58 mg/kg | 420 mg/kg
CCOCCO[C@H]1O[C@H](CN(CC(C)(C)C)C(=O)N(CCCl)N=O)[C@@H](O)[C@H](O)[C@H]1O [Compound 187, 3-neopentyl-3-(2-ethoxyethyl α-D-glucopyranose-6-yl)-1-(2-choroethyl)-1-nitrosourea] | – | – | 6/6 | > 700% | 60.2 | – | 160 mg/kg | 2.66 mg/kg | 510 mg/kg
CC(C)CO[C@@H]1O[C@H](CO)[C@@H](O)[C@H](O)[C@H]1N(C(=O)N(CCCl)N=O)C(C)(C)C [Compound 176, 3-tert-butyl-3-(isobutyl β-D-glucopyranose-2-yl)-1-(2-chloroethyl)-1-nitrosourea] | – | – | 6/6 | > 700% | 30.5 | – | 180 mg/kg | 5.9 mg/kg | 620 mg/kg
CC(C)COC1OC(CO)C(N(C(=O)N(CCCl)N=O)C(C)C)C(O)C1O [Compound 92, 3-isopropyl-3-(isobutyl α-D-glucopyranose-4-yl)-1-(2-chloroethyl)-1-nitrosourea] | – | – | 3/6 | > 360% | 31.8 | – | 100 mg/kg | 3.14 mg/kg | 335 mg/kg
O=NN(CCCl)C(=O)N(CCC1CCCC1)C1C(OC2CCCCC2)OC(CO)C(O)C1O [Compound 67, 3-(2-cyclopentylethyl)-3-(cyclohexyl α-D-glucopyranose-2-yl)-1-(2-chloroethyl)-1-nitrosourea] | – | – | 3/6 | > 355% | 28.6 | – | 200 mg/kg | 7.5 mg/kg | 650 mg/kg
C=C(C)CN(C(=O)N(CCCl)N=O)C1C(CO)OC(OC2CCCCC2)C(O)C1O [Compound 97, 3-(2-methyl-2-propenyl)-3-(cyclohexyl α-D-glucopyranose-4-yl)-1-(2-chloroethyl)-1-nitrosourea] | – | – | 3/6 | > 360% | 32.3 | – | 120 mg/kg | 3.72 mg/kg | 390 mg/kg
CCCN(C[C@H]1O[C@H](OC2CCCCC2)[C@H](O)[C@@H](O)[C@H]1O)C(=O)N(CCCl)N=O [Compound 98, 3-n-propyl-3-(cyclohexyl α-D-galactopyranose-6-yl)-1-(2-chloroethyl)-1-nitrosourea] | – | – | 3/6 | > 350% | 31.0 | – | 200 mg/kg | 6.45 mg/kg | 600 mg/kg
Cc1ccc(CN(C[C@H]2O[C@H](OC3CCCCC3)[C@H](O)[C@@H](O)[C@@H]2O)C(=O)N(CCCl)N=O)cc1 [Compound 47, 3-(p-methylbenzyl)-3-(cyclohexyl α-D-glucopyranose-6-yl)-1-(2-chloroethyl)-1-nitrosourea] | – | – | 4/6 | > 440% | 34.2 | – | 170 mg/kg | 4.97 mg/kg | 545 mg/kg
CC(C)CN(C(=O)N(CCCl)N=O)[C@H]1[C@H](O)[C@H](OC2CCCCC2)O[C@@H]1CO [Compound 163, 3-isobutyl-3-(cyclohexyl β-D-arabinofuranose-3-yl)-1-(2-chloroethyl)-1-nitrosourea] | – | – | 3/6 | > 365% | 32.6 | – | 160 mg/kg | 4.91 mg/kg | 550 mg/kg
COc1ccc(CN(C[C@H]2O[C@H](OC3CCCCC3)[C@H](O)[C@@H](O)[C@@H]2O)C(=O)N(CCCl)N=O)cc1 [Compound 48, 3-(p-methoxybenzyl)-3-(cyclohexyl α-D-glucopyranose-6-yl)-1-(2-chloroethyl)-1-nitrosourea] | – | – | 4/6 | > 445% | 36.6 | – | 170 mg/kg | 4.64 mg/kg | 530 mg/kg
CCCCCCN(C[C@H]1O[C@H](OCCCC)[C@H](O)[C@@H](O)[C@@H]1O)C(=O)N(CCCl)N=O [Compound 7, 3-n-hexyl-3-(n-butyl α-D-glucopyranose-6-yl)-1-(2-chloroethyl)-1-nitrosourea] | – | – | 5/6 | > 620% | 26.9 | – | 140 mg/kg | 5.2 mg/kg | 410 mg/kg
